Laboratory results published in US11584747B2, “Substituted pyridopyrimidinonyl compounds useful as T cell activators” (BRISTOL-MYERS SQUIBB COMPANY, priority 2019, dated 2023).

What was measured:
human DGKζ = human DGKζ (Homo sapiens (Human), UniProt Q13574); assay: DGKζ LIPGLO assay (extruded liposome substrate, ADP-Glo luminescence); format: biochemical; details: liposome assay; read-out: DGK zeta LIPGLO IC50
human DGKα = human DGKα (Homo sapiens (Human), UniProt P23743); assay: DGKα ADPGLO assay (detergent/lipid micelle substrate); format: biochemical; details: truncated DGK alpha; read-out: DGK alpha ADPGLO (Truncated) IC50
Sequence of human DGKα (P23743 whole entry, looked up, the tested form may be a part): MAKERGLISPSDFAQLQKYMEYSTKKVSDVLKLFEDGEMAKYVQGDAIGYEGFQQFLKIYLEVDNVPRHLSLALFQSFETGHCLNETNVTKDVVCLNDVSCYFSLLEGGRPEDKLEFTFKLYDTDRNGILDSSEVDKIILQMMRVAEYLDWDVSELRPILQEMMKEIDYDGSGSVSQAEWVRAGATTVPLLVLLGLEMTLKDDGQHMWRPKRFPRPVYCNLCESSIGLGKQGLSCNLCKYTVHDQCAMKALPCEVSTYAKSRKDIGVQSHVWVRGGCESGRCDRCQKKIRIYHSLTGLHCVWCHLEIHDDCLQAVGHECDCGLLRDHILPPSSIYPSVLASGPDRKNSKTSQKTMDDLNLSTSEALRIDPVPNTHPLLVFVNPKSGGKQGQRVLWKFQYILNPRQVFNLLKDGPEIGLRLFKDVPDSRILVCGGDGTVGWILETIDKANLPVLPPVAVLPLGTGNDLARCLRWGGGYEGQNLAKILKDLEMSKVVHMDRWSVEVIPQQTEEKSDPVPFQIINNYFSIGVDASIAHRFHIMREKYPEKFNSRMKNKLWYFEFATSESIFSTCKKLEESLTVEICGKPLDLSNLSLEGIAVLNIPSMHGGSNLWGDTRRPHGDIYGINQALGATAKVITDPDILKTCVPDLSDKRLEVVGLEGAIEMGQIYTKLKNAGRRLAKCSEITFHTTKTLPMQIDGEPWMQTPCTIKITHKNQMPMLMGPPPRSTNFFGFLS
Procedure: DGK Alpha ADPGLO (Truncated) IC50 (uM)
The detergent/lipid micelle was prepared by combining 15 g phosphatidylserine (Avanti 840035P) and 1 g diacylglycerol (8008110) and dissolving into 150 mL chloroform in a 2 L round bottom flask. Chloroform was removed under high vacuum by rotary evaporation. […] The lipid/detergent solution was split into 5 mL aliquots and stored at −80° C.

whole blood (pERK) = assay: pERK Whole Blood assay (Table A; no whole-blood pERK method described); format: cell-based; details: normalized

Sequence of human DGKζ (Q13574 other isoform, or with tags, fused parts or gaps): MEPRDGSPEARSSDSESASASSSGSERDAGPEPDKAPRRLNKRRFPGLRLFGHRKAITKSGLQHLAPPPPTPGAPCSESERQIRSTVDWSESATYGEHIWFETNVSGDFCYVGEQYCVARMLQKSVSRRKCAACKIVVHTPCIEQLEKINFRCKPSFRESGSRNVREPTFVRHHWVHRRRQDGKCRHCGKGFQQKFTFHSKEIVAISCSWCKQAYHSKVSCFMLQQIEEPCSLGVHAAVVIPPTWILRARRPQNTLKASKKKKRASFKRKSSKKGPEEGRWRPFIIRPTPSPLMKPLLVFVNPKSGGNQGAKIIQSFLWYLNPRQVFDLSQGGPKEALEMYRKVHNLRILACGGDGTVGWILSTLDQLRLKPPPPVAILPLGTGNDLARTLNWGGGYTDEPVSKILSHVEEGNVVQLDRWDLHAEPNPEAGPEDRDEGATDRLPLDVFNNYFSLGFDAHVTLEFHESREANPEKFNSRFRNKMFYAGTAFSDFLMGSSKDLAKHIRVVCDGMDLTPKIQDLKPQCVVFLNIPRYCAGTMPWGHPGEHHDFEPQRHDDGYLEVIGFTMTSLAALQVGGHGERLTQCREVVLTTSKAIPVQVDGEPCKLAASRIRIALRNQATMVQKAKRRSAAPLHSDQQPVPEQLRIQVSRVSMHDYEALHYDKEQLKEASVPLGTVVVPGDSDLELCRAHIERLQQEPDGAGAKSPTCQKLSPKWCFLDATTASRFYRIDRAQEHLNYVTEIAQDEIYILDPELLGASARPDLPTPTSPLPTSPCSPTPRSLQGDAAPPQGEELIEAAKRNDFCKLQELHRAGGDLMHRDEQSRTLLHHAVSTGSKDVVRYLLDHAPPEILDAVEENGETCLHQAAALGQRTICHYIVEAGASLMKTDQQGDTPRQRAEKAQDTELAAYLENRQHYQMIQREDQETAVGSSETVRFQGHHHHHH

| Compound | IC50 (human DGKζ) [µM] | IC50 (human DGKα) [nM] | IC50 (whole blood (pERK)) [nM] |
| --- | --- | --- | --- |
| CCC(c1ccc(C(C)(C)C#N)cc1)N1C[C@H](CC)N(c2nc(=O)n(C)c3ccc(C#N)nc23)C[C@H]1CC (stereo partly drawn) [Example 251, 4-((2S,5R)-4-(1-(4-(2-cyanopropan-2-yl)phenyl)propyl)-2,5-diethylpiperazin-1-yl)-1-methyl-2-oxo-1,2-dihydropyrido[3,2-d]pyrimidine-6-carbonitrile] | 0.018 | 34 | 1580 |
| CC[C@H]1CN(C(C)c2ccc(CN3CC4(COC4)C3)cc2)[C@H](CC)CN1c1nc(=O)n(C)c2ccc(C#N)nc12 (stereo partly drawn) [Example 280, 4-((2S,5R)-4-(1-(4-((2-oxa-6-azaspiro[3.3]heptan-6-yl)methyl)phenyl)ethyl)-2,5-diethylpiperazin-1-yl)-1-methyl-2-oxo-1,2-dihydropyrido[3,2-d]pyrimidine-6-carbonitrile] | 125 | 42700 | 150 |
| CC[C@H]1CN(C(C)c2ccc(CN3CCC[C@@H](O)C3)cc2)[C@H](CC)CN1c1nc(=O)n(C)c2ccc(C#N)nc12 (stereo partly drawn) [Example 290, 4-((2S,5R)-2,5-diethyl-4-(1-(4-(((R)-3-hydroxypiperidin-1-yl)methyl)phenyl)ethyl)piperazin-1-yl)-1-methyl-2-oxo-1,2-dihydropyrido[3,2-d]pyrimidine-6-carbonitrile] | 57.2 | 1950 | 20000 |
| CCC(c1ccc(C(C)(C)C#N)cc1)N1C[C@H](CC)N(c2nc(=O)n(C)c3ccc(C#N)nc23)C[C@H]1CC (stereo partly drawn) [Example 252, 4-((2S,5R)-4-(1-(4-(2-cyanopropan-2-yl)phenyl)propyl)-2,5-diethylpiperazin-1-yl)-1-methyl-2-oxo-1,2-dihydropyrido[3,2-d]pyrimidine-6-carbonitrile] | 0.78 | 270 | 4280 |
| CCC(c1ccc(OC(C)C)cc1)N1C[C@H](CC)N(c2nc(=O)n(C)c3ccc(C#N)nc23)C[C@H]1CC (stereo partly drawn) [Example 234, 4-((2S,5R)-2,5-diethyl-4-(1-(4-isopropoxyphenyl)propyl)piperazin-1-yl)-1-methyl-2-oxo-1,2-dihydropyrido[3,2-d] pyrimidine-6-carbonitrile] | 0.059 | 36 | 80 |
| CC[C@H]1CN(C(c2ccc(OC)cc2)C(C)C)[C@H](CC)CN1c1nc(=O)n(C)c2ccc(C#N)nc12 (stereo partly drawn) [Example 250, 4-((2S,5R)-2,5-diethyl-4-(1-(4-methoxyphenyl)-2-methylpropyl)piperazin-1-yl)-1-methyl-2-oxo-1,2-dihydropyrido[3,2-d]pyrimidine-6-carbonitrile] | 1.15 | 330 | 1800 |
| CC[C@H]1CN(C(C)c2ccc(CN3CC4(COC4)C3)cc2)[C@H](CC)CN1c1nc(=O)n(C)c2ccc(C#N)nc12 (stereo partly drawn) [Example 279, 4-((2S,5R)-4-(1-(4-((2-oxa-6-azaspiro[3.3]heptan-6-yl)methyl)phenyl)ethyl)-2,5-diethylpiperazin-1-yl)-1-methyl-2-oxo-1,2-dihydropyrido[3,2-d]pyrimidine-6-carbonitrile] | 62.4 | 17000 | 2920 |
| CC[C@H]1CN(C(C)c2cccc(OC(F)(F)F)n2)[C@H](CC)CN1c1nc(=O)n(C)c2ccc(C#N)nc12 (stereo partly drawn) [Example 246, 4-((2S,5R)-2,5-diethyl-4-(1-(6-(trifluoromethoxy)pyridin-2-yl)ethyl)piperazin-1-yl)-1-methyl-2-oxo-1,2-dihydropyrido[3,2-d]pyrimidine-6-carbonitrile] | 5.85 | 4670 | 440 |
| CC[C@@H]1CN(c2nc(=O)n(C)c3ccc(C#N)nc23)[C@@H](C)CN1C(C)c1ccc(C(F)(F)F)cc1 (single isomer, unassigned) [Example 8] | – | 140 | 180 |
